Where “and” joins values, the source holds several entries; their conditions need not be identical. Identical values can stand only once.
Test system: tissue mRNA levels
Assay: Quantitative PCR of tissue gene expression in treated mice;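 as to mRNA levels Retn: daily intraperitoneal dosing for 5 weeks versus vehicle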;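 as to mRNA levels Srebf-1c: daily intraperitoneal dosing for 5 weeks versus vehicle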;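 as to mRNA levels Srebf-2: daily intraperitoneal dosing for 5 weeks versus vehicle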;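 as to mRNA levels Tnfaip2: daily intraperitoneal dosing for 5 weeks versus vehicle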
Type: in vivo, mouse
Set-up: key to mRNA levels Scap / mRNA levels Insig1 / mRNA levels Ldlr / mRNA levels Mttp / mRNA levels Atgl / mRNA levels Tnfaip2 / mRNA levels Rxra / mRNA levels Srebf1 / mRNA levels Ucp2: mRNA level normalized to ribosomal L32 mRNA (internal control)
Protocol: Total RNA from cells and tissues was extracted by Trizol (Invitrogen) and reverse-transcribed into cDNA using the prime script RT reagent kit with gDNA eraser (Takara). The mRNA levels were determined using the SYBR-green PCR kit (Takara) with ABIPRISM 7900HT Sequence detector (ABI) according to the manufacturer’s protocol. The quantitative qPCR primers used in this work are listed in Supplementary Table 1. Ribosomal L32 mRNA levels were used as an internal control.

[1] = Figure 6d, white fat (WF) tissue of DIO mice, individual animals
[2] = db/db mice, liver, individual mouse, relative to VEH
[3] = liver of DIO mice, individual animals, n=5, relative to VEH

CC(C)=CCc1cc(C=CC(=O)O)cc(CC=C(C)C)c1O [APC, 3,5-diprenyl-4-hydroxycinnamic acid]
mRNA levels Retn [1]: 0.123 and 0.143 and 0.2381 and 0.235 and 0.5597 and 0.5846 | mRNA levels Scd1 [1]: 0.2084 and 0.3568 and 0.6736 and 0.7934 and 0.506 and 0.7156 | mRNA levels Srebf-1c [1]: 0.5354 and 0.1144 and 0.4679 and 0.2361 and 0.4842 and 0.3947 | mRNA levels Srebf-2 [1]: 0.5798 and 0.5629 and 0.8096 and 0.529 and 0.7852 and 0.6266 | mRNA levels Tnfaip2 [1]: 1.35 and 1.386 and 0.7621 and 0.8823 and 0.8616 and 0.7122 | Mean Diff. (Veh. vs. treated; head of the quantity not shown, section just before Figure 7h) (WT mice, Met 200mg/kg or APC-20): 0.5814 | CREB targets in tissues: Brain-Creb, Mean of APC (brain, Creb mRNA, group mean): 1.036 | CREB targets in tissues: Brain-Creb (brain, Creb mRNA, individual animals): 1.197 and 1.012 and 0.7996 and 1.136 | CREB targets in tissues: Brain-Nr4a1, Mean of APC (brain, Nr4a1 mRNA, group mean): 1.211 | CREB targets in tissues: Brain-Nr4a1 (brain, Nr4a1 mRNA, individual animals): 1.274 and 1.137 and 0.9545 and 1.476 | G6pc mRNA levels in the liver of db/db, Mean of APC (db/db mice, liver, group mean): 0.7471 | Pck1 mRNA levels in the liver of db/db, Mean of APC (db/db mice, liver, group mean): 0.6226 | Pgc1a mRNA levels in the liver of db/db, Mean of APC (db/db mice, liver, group mean): 0.7977 | Pgc1beta mRNA levels in the liver of db/db, Mean of APC (db/db mice, liver, group mean): 0.5441 | G6pc mRNA levels in the liver of db/db [2]: 0.8066 and 0.775 and 0.6553 and 0.7287 and 0.77 | Pck1 mRNA levels in the liver of db/db [2]: 0.6945 and 0.6263 and 0.76 and 0.3641 and 0.668 | Pgc1a mRNA levels in the liver of db/db [2]: 0.6615 and 0.9739 and 0.731 and 0.852 and 0.77 | Pgc1beta mRNA levels in the liver of db/db [2]: 0.4871 and 0.4573 and 0.6546 and 0.4823 and 0.6391 | CREB targets in tissues: Intestine-Creb, Mean of APC (intestine, Creb mRNA, group mean): 0.8467 | CREB targets in tissues: Intestine-Creb (intestine, Creb mRNA, individual animals): 1.179 and 0.6319 and 0.7341 and 0.8415 | CREB targets in tissues: Intestine-Gcg, Mean of APC (intestine, Gcg mRNA, group mean): 1.011 | CREB targets in tissues: Intestine-Gcg (intestine, Gcg mRNA, individual animals): 1.309 and 1.259 and 0.7551 and 0.7184 | CREB targets in tissues: Intestine-Nr4a1, Mean of APC (intestine, Nr4a1 mRNA, group mean): 0.8751 | CREB targets in tissues: Intestine-Nr4a1 (intestine, Nr4a1 mRNA, individual animals): 0.8692 and 0.9136 and 0.8672 and 0.8504 | CREB targets in tissues: Kidney-Creb, Mean of APC (kidney, Creb mRNA, group mean): 1.013 | CREB targets in tissues: Kidney-Creb (kidney, Creb mRNA, individual animals): 1.268 and 1.031 and 0.912 and 0.8402 | CREB targets in tissues: Kidney-Nr4a1, Mean of APC (kidney, Nr4a1 mRNA, group mean): 1.291 | CREB targets in tissues: Kidney-Nr4a1 (kidney, Nr4a1 mRNA, individual animals): 1.347 and 1.276 and 1.454 and 1.087 | mRNA levels of nuclear receptor in the liver of DIO mice: Lxrα [3]: 0.586 and 0.8678 and 0.6768 and 0.6509 and 0.6469 | mRNA levels of nuclear receptor in the liver of DIO mice: Pparα [3]: 0.9724 and 0.9732 and 1.109 and 1.163 and 1.051 | mRNA levels of nuclear receptor in the liver of DIO mice: Pparγ [3]: 1.158 and 1.005 and 1.0158 and 1.1983 and 1.083 | mRNA levels of nuclear receptor in the liver of DIO mice: Rxrα [3]: 0.9006 and 1.063 and 0.8578 and 0.9925 and 1.111 | mRNA levels of nuclear receptor in the liver of DIO mice: Lxrα, group mean (Mean 1) (liver of DIO mice, mean of N=5): 0.6857 | mRNA levels of nuclear receptor in the liver of DIO mice: Pparα, group mean (Mean 1) (liver of DIO mice, mean of N=5): 1.054 | mRNA levels of nuclear receptor in the liver of DIO mice: Pparγ, group mean (Mean 1) (liver of DIO mice, mean of N=5): 1.092 | mRNA levels of nuclear receptor in the liver of DIO mice: Rxrα, group mean (Mean 1) (liver of DIO mice, mean of N=5): 0.9849 | CREB targets in tissues: Mus-Creb, Mean of APC (muscle, Creb mRNA, group mean): 1.048 | CREB targets in tissues: Mus-Creb (muscle, Creb mRNA, individual animals): 1.0591 (2×) and 0.9897 and 1.082 | CREB targets in tissues: Mus-Nr4a1, Mean of APC (muscle, Nr4a1 mRNA, group mean): 1.244 | CREB targets in tissues: Mus-Nr4a1 (muscle, Nr4a1 mRNA, individual animals): 1.457 (2×) and 0.6913 and 1.369 | CREB targets in tissues: Mus-Pdk1, Mean of APC (muscle, Pdk1 mRNA, group mean): 0.9489 | CREB targets in tissues: Mus-Pdk1 (muscle, Pdk1 mRNA, individual animals): 0.9576 (2×) and 0.8606 and 1.02 | liver mRNA levels of Srebp-1c and 2 in CRTC2 knockout mice (oral 20 mg/kg daily, 3 weeks): did not further decrease | CREB targets in tissues: Pancreac-C2cd4a, Mean of APC (pancreas, C2cd4a mRNA, group mean): 0.9353 | CREB targets in tissues: Pancreac-C2cd4a (pancreas, C2cd4a mRNA, individual animals): 1.193 and 0.8753 and 0.8055 and 0.8678 | CREB targets in tissues: Pancreac-Creb, Mean of APC (pancreas, Creb mRNA, group mean): 1.238 | CREB targets in tissues: Pancreac-Creb (pancreas, Creb mRNA, individual animals): 1.233 and 1.182 and 1.267 and 1.269 | CREB targets in tissues: Pancreac-Nr4a1, Mean of APC (pancreas, Nr4a1 mRNA, group mean): 1.238 | CREB targets in tissues: Pancreac-Nr4a1 (pancreas, Nr4a1 mRNA, individual animals): 0.9381 and 1.521 and 1.263 and 1.23 | CREB targets in tissues: Spleen-Creb, Mean of APC (spleen, Creb mRNA, group mean): 1.07 | CREB targets in tissues: Spleen-Creb (spleen, Creb mRNA, individual animals): 1.294 and 1.069 and 0.8334 and 1.085 | CREB targets in tissues: Spleen-Nr4a1, Mean of APC (spleen, Nr4a1 mRNA, group mean): 1.115 | CREB targets in tissues: Spleen-Nr4a1 (spleen, Nr4a1 mRNA, individual animals): 1.516 and 1.042 and 0.6673 and 1.233

From publication PMC8752738, “A propolis-derived small molecule ameliorates metabolic syndrome in obese mice by targeting the CREB/CRTC2 transcriptional complex” (Nature Communications, 2022)
